In patent US11602532B2, “Nanoparticle formulations of decoquinate in the form of solid solution” (CAS Lamvac (Guangzhou) Biomedical Technology Co., Ltd., priority 2019, dated 2023):
Where two headings read alike, the source gives them in different places.

Tests used:
[1] = HPLC analysis of decoquinate after HME, acid or alkaline treatment; type: physicochemical; settings: treated with pH 1.2 solution for 2 days
Description: Samples are dialyzed against distilled water, diluted and analyzed with the established method. […] Differential scanning calorimetry (DSC) analysis and X-ray diffraction analysis were performed for the selected formulations in the Examples described above.

[2] = test system: Plasmodium berghei ANKA 868 expressing luciferase; test: Inhibition of liver stage development assay (ILSDA) in HepG2 cells; type: cell-based; settings: HepG2, read-out: PQ Mean (IC50)
Description: For the inhibition of liver stage development assay (ILSDA), HepG2 liver cells were cultured with Plasmodium berghei sporozoite expressing firefly luciferase in the presence of a series of dilutions of test compound. In the case of formulations, the compound concentration was determined by the quantitation of HPLC. […] The culture was maintained in microtiter plates for 48 hours after sporozoite invasion and intracellular proliferation of P. berghei parasites in HepG2 cells. The growth inhibition of the parasites by the test compound or the compound complexed with the excipients was determined by measuring the luminescent intensity produced by the process of luciferase catalyzing the substrates which were added by the end of incubation.
The experiments were carried out on HepG2 cells incubated with the sporozoites isolated from salivary glands of infected mosquitoes. […] The results were expressed by the half maximal inhibition concentration (IC50).

[3] = test system: Plasmodium berghei ANKA (Pb 868 sporozoites); test: Causal prophylactic efficacy against sporozoite inoculation in NIH-Swiss female mice; type: in vivo
Description: The NIH-Swiss female mice used for the experiment were raised for at least 7 days after arrival. At the start of the experiment, the mice were 7 weeks old. Only one mouse was housed in each cage and maintained in a room with a temperature range of 18 to 26° C. with a relative humidity of 34% to 68% in a 12/12h light-dark cycle. Food and water were provided ad libitum during quarantine and throughout the study. This experiment was carried out in strict accordance with the relevant animal testing regulations (the Chinese State Council's Laboratory Animal Management Regulations, Revised Mar. 1, 2017). The decoquinate suspension used in the animal experiment was from the product of Examples 2, 8, 9, 11, 12 and 15 (F2, F8, F9, F11, F12 and F15), prepared with saline and subjected to ultrasonic treatment for 5 minutes. Each animal experiment was repeated at least three times with a group of 5 each time, so that at least 15 mice were tested in each group. The mice were inoculated with Plasmodium parasites by an injection of 50,000 sporozoites of Plasmodium berghei ANKA (Pb 868 sporozoites) through the tail vein of each mouse. Testing compound or formulation compound was administered to mice by PO (oral administration, by the manually intragastric method) the day before, the day of, and the next day after Plasmodium inoculation. The formulation compound suspended in saline were quantitated by HPLC method before dosing animals. The positive control was primaquine, an antimalarial drug used for the liver-stage Plasmodium. The vehicle control was the components used in the solid dispersion of decoquinate other than decoquinate. No anti-malarial activity was found with the vehicle control, the results of which were consistent with those obtained by using only saline as a negative control. The detection of Plasmodium parasitemia was performed as follows: a conventional method was used to count red blood cells per mm^3 of blood in that a thin film of blood was prepared and stained with 3% Giemsa for 20 minutes; and then the number of infected red blood cells per 1000 red blood cells was counted under oil microscope to obtain erythrocyte infected rate (EIR, ‰). If the parasites were not seen in the thin film, the thick film was prepared for detection of parasites and the results expressed as the parasite number per 100 white blood cells (WBC). Survival rates were calculated on day 60 post-infection for the still live mice versus the dead mice.
[…] The results shown were the number of infected mice on day 12 from the microscopic detection of parasites of thin or thick films. The results also include the protection rate on day 12 and survival rate on day 60. The products from F8, F9, F11 and F15 have 100% survival rates whereas PQ, F2 and F12 have survival rates of 80%.
Table 8 illustrates efficacy studies of the HME compositions prepared in various examples in mice infected with Plasmodium berghei expressing luciferase; wherein decoquinate given to animals at a dose of 5 mg per kg was in the saline suspension of F2, F8, F9, F11, F12, and […] HME preparations; the saline group as a negative control; PQ represents the primaquine group used as a positive control at a dose of 30 mg per kg body weight. […] Protection rates were calculated according to the data of parasitemia detection in mice on day 12 of Plasmodium sporozoite inoculation and the survival rates in each group on day 60 post the sporozoite inoculation.

[4] = test system: Pf3D7; test: Malaria SYBR fluorescence (MSF) blood stage assay, Pf3D7; type: cell-based; settings: Plasmodium falciparum, read-out: IC50 (nM) Mean
Description: (§1) Fifteen different preparations of decoquinate solid solutions as described in Examples were tested in cell culture assays to assess the growth inhibition of blood stage Plasmodium in freshly isolated human blood cells and the growth inhibition of Plasmodium in the liver stage in cell culture of HepG2 cells. The malaria SYBR fluorescence (MSF) assay was performed to detect the parasite DNA of Plasmodium falciparum in late-ring or early-trophozoite stages. […] The intensity of fluorescence generated by the binding of SYBR Green I dye to Plasmodium DNA is quantitatively proportional to the number of parasites. The detailed description of method refers to SOP of the inventors.
(§2) Chloroquine and artemisinin were used as positive controls in the same experiments.

[5] = test system: pfDd2; test: Malaria SYBR fluorescence (MSF) blood stage assay, pfDd2; type: cell-based; settings: Plasmodium falciparum, read-out: IC50 (nM) Mean
Description: as §1, §2

[6] = test system: Pf803; test: Malaria SYBR fluorescence (MSF) blood stage assay, Pf803; type: cell-based; settings: Plasmodium falciparum, read-out: IC50 (nM) Mean
Description: as §1, §2
(§3) The HME solid solutions were treated with alkaline buffer (pH 9), or with high temperature (60° C.) or with high humidity (92%) for 5 or 10 days respectively and then used for testing decoquinate inhibitory effects in in vitro blood stage experiments using freshly prepared red blood cells infected with Plasmodium Pf803 or PfB12D9. The base pH was neutralized by dialysis of decoquinate HME samples before used in cell culture experiments.

[7] = test system: pfB74F6 (PS); test: Malaria SYBR fluorescence (MSF) blood stage assay, pfB74F6; type: cell-based; settings: Plasmodium falciparum, read-out: IC50 (nM) Mean
Description: as §1, §2

[8] = test system: pfB47D6 (PS); test: Malaria SYBR fluorescence (MSF) blood stage assay, pfB47D6; type: cell-based; settings: Plasmodium falciparum, read-out: IC50 (nM) Mean
Description: as §1, §2

[9] = test system: pfB64G11 (PS); test: Malaria SYBR fluorescence (MSF) blood stage assay, pfB64G11; type: cell-based; settings: Plasmodium falciparum, read-out: IC50 (nM) Mean
Description: as §1, §2

[10] = test system: pfB74C4 (PS); test: Malaria SYBR fluorescence (MSF) blood stage assay, pfB74C4; type: cell-based; settings: Plasmodium falciparum, read-out: IC50 (nM) Mean
Description: as §1, §2

[11] = test system: pfB12D9 (PS); test: Malaria SYBR fluorescence (MSF) blood stage assay, pfB12D9; type: cell-based; settings: Plasmodium falciparum, read-out: IC50 (nM) Mean
Description: as §1
Table 6 is the results showing in vitro antimalarial potency of decoquinate HME formulations prepared from Example 8 (F8) and Example 15 (F15). […] Chloroquine and artemisinin were used as positive controls in the same experiments.
as §3

[12] = primaquine 20 mg/kg (table), intragastric, 3 daily doses, 5 mice per group

## CCCCCCCCCCOc1cc2c(O)c(C(=O)OCC)cnc2cc1OCC [Decoquinate, ethyl-6-decyloxy-7-ethoxy-4-hydroxyquinoline-3-carboxylate]
[1]
  peak pattern and retention time of decoquinate in HPLC: change in the peak pattern and the shift in the retention time

## COc1cc(NC(C)CCCN)c2ncccc2c1 (centres unmarked) [PQ, primaquine]
[2]
  IC50: 1.73 µM
[3]; 30 mg primaquine per kg body weight, day 60
  survival rate: 80%
[3]; [12]
  Infected (Day 12): 2
  Protected rate (Day 12): 60
  Survival rate (Day 32): 80%
  Survived (Day 32): 4

## C[C@@H]1CC[C@H]2[C@@H](C)C(=O)O[C@@H]3O[C@@]4(C)CC[C@@H]1[C@]32OO4 [Artemisinin]
[4]; blood stage, Pf3D7, 72h
  IC50: 23.1 nM
[5]; blood stage, pfDd2 (multidrug resistance including chloroquine), 72h
  IC50: 26 nM
[6]; blood stage, Pf803 (chloroquine resistance), 72h
  IC50: 32 nM
[7]; blood stage, pfB74F6, sample collected from patients
  IC50: 14.5 nM
[8]; blood stage, pfB47D6, sample collected from patients
  IC50: 25.4 nM
[9]; blood stage, pfB64G11, sample collected from patients
  IC50: 6.66 nM
[10]; blood stage, pfB74C4, sample collected from patients
  IC50: 26.4 nM
[11]
  IC50: 24.1 nM

## CCN(CC)CCCC(C)Nc1ccnc2cc(Cl)ccc12 (centres unmarked) [Chloroquine]
[4]; 72 h
  IC50: 57.5 nM
[5]; 72 h
  IC50: 244 nM
[6]; 72 h
  IC50: 957 nM
[7]
  IC50: 79.2 nM
[8]
  IC50: 78.2 nM
[9]
  IC50: 30.4 nM
[10]
  IC50: 59.3 nM
[11]
  IC50: 63.3 nM
